The subject of series [1] is Candida albicans. The series is described as follows: Antifungal activity against Candida albicans ATCC SC5314 assessed as fungal growth inhibition incubated for 72 hrs by broth microdilution method. It is filed as functional. Background: In broth dilution the organism is exposed to a series of concentrations in liquid medium.
Series [2] has as its system Candida albicans. Kind of series: In vivo antifungal activity against Candida albicans 901 infected in mouse model assessed as body weight gain at 5 microg/g, iv pre-infected with fungi by intravenous injection followed by compound administration and measured on day 8 in presence of BPE. It is filed as functional, organism-based. As to conditions: dose 5.0 µg/g, time 8.0 day.

Series [3] deals with Candida albicans. Kind of series: Induction of apoptosis in Candida albicans ATCC SC5314 assessed as necrotic cells by V-FITC/PI staining based flow cytometric analysis (reference value: 2.74%). Type of series: functional.
Series [4] relates to Candida albicans. The series is described as follows: In vivo antifungal activity against Candida albicans 901 infected in mouse model assessed as reduction in genetic material content in lung at 5 microg/g, iv pre-infected with fungi by intravenous injection followed by compound administration and measured on day 8 in presence of BPE by H and E staining based analysis. It is filed as functional, organism-based. The following applies: dose 5.0 µg/g, time 8.0 day.

Series [5] deals with Candida albicans. Kind of series: Antifungal activity against fluconazole-resistant Candida albicans CaR assessed as reduction in fungal growth incubated for 72 hrs by broth microdilution method. Type of series: functional.
Series [6] concerns Candida albicans. Kind of series: In vivo antifungal activity against Candida albicans 901 infected in mouse model assessed as reduction in genetic material content in lung at 5 microg/g, iv pre-infected with fungi by intravenous injection followed by compound administration and measured on day 8 in presence of 1-MT by H and E staining based analysis. Type of series: functional, organism-based. The following applies: dose 5.0 µg/g, time 8.0 day.

The nature of series [7]: Toxicity in mouse infected with Candida albicans 901 assessed as change in AST level (reference value: 76.1 +/-4.2 IU/L). The following applies: in vivo.
Series [8] relates to Candida albicans. The series is described as follows: In vivo antifungal activity against Candida albicans 901 infected in mouse model assessed as decrease in PD-L1 protein expression level at 5 microg/g, iv pre-infected with fungi by intravenous injection followed by compound administration and measured on day 8 in presence of BPE by Western blotting analysis. It is filed as functional, organism-based. The following applies: dose 5.0 µg/g, time 8.0 day. For orientation: In western blotting, separated proteins are transferred to a membrane and probed.

For another series, the system named is Candida tropicalis. The series is described as follows: Antifungal activity against Candida tropicalis ATCC 1369 assessed as fungal growth inhibition incubated for 72 hrs by broth microdilution method. Type of series: functional.
Series [9] relates to Candida albicans. Kind of series: In vivo antifungal activity against Candida albicans 901 infected in mouse model assessed as increase in CD4positive expression level in presence of BPE. It is filed as functional, organism-based.
Series [10] is described as follows: Toxicity in mouse infected with Candida albicans 901 assessed as change in ALT level in presence of 1-MT (reference value: 42.8 +/-3.9 IU/L). As to conditions: in vivo.
A further series deals with HeLa. The series is described as follows: Cytotoxicity against human HeLa cells incubated for 24 hrs by CCK8 assay. It is filed as functional, cell-based.
Series [11] can be described thus: Toxicity in mouse infected with Candida albicans 901 assessed as change in ALT level (reference value: 42.8 +/-3.9 IU/L). The following applies: in vivo.
The test system of series [12] is Candida albicans. Kind of series: In vivo antifungal activity against Candida albicans 901 infected in mouse model assessed as decrease in IL-2 protein expression level at 5 microg/g, iv pre-infected with fungi by intravenous injection followed by compound administration and measured on day 8 in presence of 1-MT by Western blotting analysis. Type of series: functional, organism-based. The following applies: dose 5.0 µg/g, time 8.0 day.

Series [13] concerns Candida albicans. Kind of series: In vivo antifungal activity against Candida albicans 901 infected in mouse model assessed as reduction in genetic material content in lung at 5 microg/g, iv pre-infected with fungi by intravenous injection followed by compound administration and measured on day 8 by H and E staining based analysis. Type of series: functional, organism-based. The following applies: dose 5.0 µg/g, time 8.0 day.

Series [14] can be described thus: Toxicity in mouse infected with Candida albicans 901 assessed as change in CRE level in presence of BPE (reference value: 21.5 +/-1.7 umol/L). As to conditions: in vivo.
A short description of series [15]: Toxicity in mouse infected with Candida albicans 901 assessed as change in BUN level in presence of BPE (reference value: 11.4 +/-1.5 mmol/L). As to conditions: in vivo.
The test system of series [16] is Candida albicans. Kind of series: Induction of apoptosis in Candida albicans ATCC SC5314 assessed as late apoptotic cells by V-FITC/PI staining based flow cytometric analysis (reference value: 0.40%). Type of series: functional.
For series [17], the system named is Candida albicans. Kind of series: In vivo antifungal activity against Candida albicans 901 infected in mouse model assessed as decrease in PD-L1 protein expression level at 5 microg/g, iv pre-infected with fungi by intravenous injection followed by compound administration and measured on day 8 in presence of 1-MT by Western blotting analysis. Type of series: functional, organism-based. The following applies: dose 5.0 µg/g, time 8.0 day.

The test system of series [18] is Candida albicans. The series is described as follows: Antifungal activity against fluconazole-resistant Candida albicans 17# assessed as reduction in fungal growth incubated for 72 hrs by broth microdilution method. It is filed as functional.
Series [19] has as its system Candida albicans. The series is described as follows: In vivo antifungal activity against Candida albicans 901 infected in mouse model assessed as expansion of alveolar spaces in lung at 5 microg/g, iv pre-infected with fungi by intravenous injection followed by compound administration and measured on day 8 by H and E staining based analysis. Type of series: functional, organism-based. The following applies: dose 5.0 µg/g, time 8.0 day.

For orientation: MIC50 means the lowest concentration that inhibits either 50% of growth or 50% of the strains tested, depending on the study. For orientation: IC50 means the point on the concentration scale where inhibition reaches its midpoint. Read a low IC50 as greater potency.

≈ marks a conversion by molar mass, not a printed value. Calls of active or inactive are those of the source. The calls are words filed in the database; no cut-off is given here.

Take `O=C(CNC(=O)c1nc2ccc(Cl)cc2c(=O)[nH]1)NCC(=O)c1ccccc1`: the MIC50 stood at 1 mg/L (≈ 2.51 µM) in the series with Candida albicans [1], 2 mg/L (≈ 5.01 µM) in the series with Candida albicans [5], 0.5 mg/L (≈ 1.25 µM) in the series with Candida tropicalis and 4 mg/L (≈ 10 µM) in the series on Candida albicans [18]. Moreover, the result in the series with Candida albicans [2], with Candida albicans [4], in the series with Candida albicans [6], in the series with Candida albicans [8], in the series with Candida albicans [9] and in the series on Candida albicans [12] was Active. The outcome in the series on Candida albicans [13], with Candida albicans [17] and in the series on Candida albicans [19] was Active. Further, the Activity in the series with Candida albicans [3] amounted to 15.9%; in series [7], 63.9 IU/L; in [10], 40.2 IU/L; in series [11], 33.6 IU/L; in [14], 16.3 µmol/L; in [15], 9.5 mmol/L. For the same compound, the Activity with Candida albicans [16] was 12.1%. The IC50 in the series with HeLa is above 50 µM.

The record behind these values is ChEMBL document CHEMBL6103585, “Construction and activity evaluation of novel CHS inhibitors against fungal infections” (Eur J Med Chem, 2025).
